Results as given in the NIST ThermoML archive (doi:10.1021/acs.jced.8b00202).
Values joined by “and” are separate entries in the source; they are usually repeats but may differ in a detail not shown here. Identical values can stand only once.

Conditions: Frequency=8 MHz, Dual path-length method

CC(C)C [2-methylpropane]
Conditions | speed of sound
300 K, 50138 kPa, Liquid | 1240.1 m/s
300 K, 60144 kPa, Liquid | 1297.7 m/s
300 K, 70151 kPa, Liquid | 1350.8 m/s
300 K, 80158 kPa, Liquid | 1400.3 m/s
300 K, 90165 kPa, Liquid | 1446.7 m/s
300 K, 100172 kPa, Liquid | 1490.4 m/s
300.01 K, 2103.9 kPa, Liquid | 831.02 m/s
319.99 K, 40132 kPa, Liquid | 1106.5 m/s
319.99 K, 45135 kPa, Liquid | 1140.9 m/s
320 K, 1103.3 kPa, Liquid | 702.16 m/s
320 K, 1103.7 kPa, Liquid | 702.18 m/s
320 K, 1105.9 kPa, Liquid | 702.16 m/s
320 K, 2106.5 kPa, Liquid | 719.58 m/s
320 K, 3107.1 kPa, Liquid | 736.11 m/s
320 K, 5106.2 kPa, Liquid | 766.91 m/s
320 K, 5106.5 kPa, Liquid | 766.92 m/s
320 K, 5108.3 kPa, Liquid | 766.9 m/s
320 K, 6108.3 kPa, Liquid | 781.34 m/s
320 K, 7109 kPa, Liquid | 795.23 m/s
320 K, 8109.8 kPa, Liquid | 808.64 m/s
320 K, 9110.4 kPa, Liquid | 821.6 m/s
320 K, 10109 kPa, Liquid | 834.15 m/s
320 K, 10110 kPa, Liquid | 834.16 m/s and 834.15 m/s
320 K, 15114 kPa, Liquid | 891.73 m/s
320 K, 17616 kPa, Liquid | 917.89 m/s
320 K, 20118 kPa, Liquid | 942.65 m/s
320 K, 25121 kPa, Liquid | 988.67 m/s
320 K, 30123 kPa, Liquid | 1030.8 m/s
320 K, 30124 kPa, Liquid | 1030.9 m/s
320 K, 35128 kPa, Liquid | 1070 m/s
320 K, 50136 kPa, Liquid | 1173.5 m/s
320 K, 50139 kPa, Liquid | 1173.5 m/s
320 K, 60146 kPa, Liquid | 1234 m/s
320 K, 70153 kPa, Liquid | 1289.5 m/s
320 K, 80160 kPa, Liquid | 1340.8 m/s
320 K, 90167 kPa, Liquid | 1388.9 m/s
320 K, 100174 kPa, Liquid | 1434 m/s
320.01 K, 12612 kPa, Liquid | 863.87 m/s
340 K, 2104 kPa, Liquid | 604.55 m/s
340 K, 2104.2 kPa, Liquid | 604.63 m/s
340 K, 3104.8 kPa, Liquid | 625.77 m/s
340 K, 4105.5 kPa, Liquid | 645.52 m/s
340 K, 5106 kPa, Liquid | 664.1 m/s
340 K, 5106.2 kPa, Liquid | 664.04 m/s
340 K, 6106.7 kPa, Liquid | 681.52 m/s
340 K, 7107.5 kPa, Liquid | 698.12 m/s
340 K, 8108.3 kPa, Liquid | 713.94 m/s
340 K, 9109.1 kPa, Liquid | 729.07 m/s
340 K, 10109 kPa, Liquid | 743.63 m/s
340 K, 10110 kPa, Liquid | 743.59 m/s
340 K, 12612 kPa, Liquid | 777.6 m/s
340 K, 15113 kPa, Liquid | 808.91 m/s
340 K, 17616 kPa, Liquid | 838.02 m/s
340 K, 20118 kPa, Liquid | 865.3 m/s
340 K, 25121 kPa, Liquid | 915.43 m/s
340 K, 30123 kPa, Liquid | 960.88 m/s
340 K, 30125 kPa, Liquid | 960.87 m/s
340 K, 35128 kPa, Liquid | 1002.6 m/s
340 K, 40130 kPa, Liquid | 1041.4 m/s
340 K, 40132 kPa, Liquid | 1041.4 m/s
340 K, 45135 kPa, Liquid | 1077.7 m/s
340 K, 50140 kPa, Liquid | 1112 m/s
340 K, 60147 kPa, Liquid | 1175.2 m/s
340 K, 70154 kPa, Liquid | 1232.9 m/s
340 K, 80159 kPa, Liquid | 1286 m/s
340 K, 90166 kPa, Liquid | 1335.6 m/s
340 K, 100173 kPa, Liquid | 1382.1 m/s
360 K, 2104.4 kPa, Liquid | 480.04 m/s
360 K, 3105.2 kPa, Liquid | 509.76 m/s
360 K, 4105.9 kPa, Liquid | 536.09 m/s
360 K, 5104.5 kPa, Liquid | 559.92 m/s
360 K, 5104.9 kPa, Liquid | 559.91 m/s
360 K, 6107.2 kPa, Liquid | 581.76 m/s
360 K, 7108 kPa, Liquid | 602.06 m/s
360 K, 8109.7 kPa, Liquid | 621.09 m/s
360 K, 9110.4 kPa, Liquid | 639 m/s
360 K, 10108 kPa, Liquid | 655.98 m/s
360 K, 10111 kPa, Liquid | 655.99 m/s
360 K, 12613 kPa, Liquid | 695.08 m/s
360 K, 15114 kPa, Liquid | 730.38 m/s
360 K, 17616 kPa, Liquid | 762.73 m/s
360 K, 20118 kPa, Liquid | 792.71 m/s
360 K, 25121 kPa, Liquid | 847.15 m/s
360 K, 30125 kPa, Liquid | 895.9 m/s
360 K, 35128 kPa, Liquid | 940.3 m/s
360 K, 40132 kPa, Liquid | 981.26 m/s
360 K, 45135 kPa, Liquid | 1019.4 m/s
360 K, 50136 kPa, Liquid | 1055.2 m/s
360 K, 50137 kPa, Liquid | 1055.2 m/s
360 K, 50138 kPa, Liquid | 1055.2 m/s
360 K, 60146 kPa, Liquid | 1121 m/s
360 K, 70152 kPa, Liquid | 1180.7 m/s
360 K, 80159 kPa, Liquid | 1235.6 m/s
360 K, 90166 kPa, Liquid | 1286.5 m/s
360 K, 100173 kPa, Liquid | 1334.2 m/s
380 K, 3104.5 kPa, Liquid | 378.47 m/s
380 K, 3604.1 kPa, Liquid | 399.56 m/s
380 K, 4105.2 kPa, Liquid | 418.49 m/s
380 K, 5105.8 kPa, Liquid | 451.63 m/s
380 K, 6106.5 kPa, Liquid | 480.42 m/s
380 K, 7107.2 kPa, Liquid | 506.13 m/s
380 K, 8107.8 kPa, Liquid | 529.51 m/s
380 K, 8109.6 kPa, Liquid | 529.52 m/s
380 K, 9107.5 kPa, Liquid | 551.1 m/s
380 K, 9107.9 kPa, Liquid | 551.06 m/s
380 K, 10108 kPa, Liquid | 571.15 m/s
380 K, 10111 kPa, Liquid | 571.16 m/s
380 K, 12610 kPa, Liquid | 616.32 m/s
380 K, 15112 kPa, Liquid | 656.14 m/s
380 K, 15114 kPa, Liquid | 656.15 m/s
380 K, 17614 kPa, Liquid | 692.04 m/s
380 K, 20115 kPa, Liquid | 724.92 m/s
380 K, 20116 kPa, Liquid | 724.9 m/s
380 K, 25120 kPa, Liquid | 783.75 m/s
380 K, 25121 kPa, Liquid | 783.75 m/s
380 K, 30123 kPa, Liquid | 835.78 m/s
380 K, 35127 kPa, Liquid | 882.76 m/s
380 K, 40130 kPa, Liquid | 925.81 m/s
380 K, 45134 kPa, Liquid | 965.68 m/s
380 K, 50137 kPa, Liquid | 1003 m/s
380 K, 60144 kPa, Liquid | 1071.2 m/s
380 K, 70152 kPa, Liquid | 1132.8 m/s
380 K, 80160 kPa, Liquid | 1189.2 m/s
380 K, 90167 kPa, Liquid | 1241.4 m/s
380 K, 100174 kPa, Liquid | 1290.2 m/s
380.01 K, 20115 kPa, Liquid | 724.92 m/s
380.01 K, 50136 kPa, Liquid | 1002.9 m/s
400 K, 4606.1 kPa, Liquid | 309.14 m/s
400 K, 5106.4 kPa, Liquid | 334.25 m/s
400 K, 6107.2 kPa, Liquid | 375.6 m/s
400 K, 7108.1 kPa, Liquid | 409.76 m/s
400 K, 8108.8 kPa, Liquid | 439.33 m/s
400 K, 8109.3 kPa, Liquid | 439.33 m/s
400 K, 9109.5 kPa, Liquid | 465.69 m/s
400 K, 10110 kPa, Liquid | 489.63 m/s
400 K, 10111 kPa, Liquid | 489.63 m/s
400 K, 12612 kPa, Liquid | 541.93 m/s
400 K, 15114 kPa, Liquid | 586.71 m/s and 586.72 m/s
400 K, 17616 kPa, Liquid | 626.34 m/s
400 K, 20117 kPa, Liquid | 662.12 m/s
400 K, 25122 kPa, Liquid | 725.35 m/s
400 K, 30126 kPa, Liquid | 780.54 m/s
400 K, 35129 kPa, Liquid | 829.95 m/s
400 K, 40132 kPa, Liquid | 874.94 m/s
400 K, 45136 kPa, Liquid | 916.42 m/s
400 K, 50139 kPa, Liquid | 955.05 m/s
400 K, 60146 kPa, Liquid | 1025.5 m/s
400 K, 70153 kPa, Liquid | 1088.7 m/s
400 K, 80160 kPa, Liquid | 1146.5 m/s
400 K, 90167 kPa, Liquid | 1199.9 m/s
400 K, 100174 kPa, Liquid | 1249.7 m/s
420 K, 6107.4 kPa, Gas | 266.66 m/s
420 K, 7108.4 kPa, Gas | 314.01 m/s
420 K, 8109.2 kPa, Gas | 351.95 m/s
420 K, 9110 kPa, Gas | 384.27 m/s
420 K, 10111 kPa, Gas | 412.72 m/s
420 K, 12613 kPa, Gas | 472.84 m/s
420 K, 15115 kPa, Gas | 522.73 m/s
420 K, 17617 kPa, Gas | 566.03 m/s
420 K, 20119 kPa, Gas | 604.64 m/s
420 K, 25122 kPa, Gas | 671.99 m/s
420 K, 30126 kPa, Gas | 730.1 m/s
420 K, 35129 kPa, Gas | 781.73 m/s
420 K, 40133 kPa, Gas | 828.47 m/s
420 K, 45136 kPa, Gas | 871.4 m/s
420 K, 50140 kPa, Gas | 911.24 m/s
420 K, 60146 kPa, Gas | 983.6 m/s
420 K, 70153 kPa, Gas | 1048.4 m/s
420 K, 80160 kPa, Gas | 1107.4 m/s
420 K, 90167 kPa, Gas | 1161.8 m/s
420 K, 100174 kPa, Gas | 1212.4 m/s
